Laboratory results taken from ChEMBL document CHEMBL1777683, “Identification of plasmepsin inhibitors as selective anti-malarial agents using ligand based drug design” (Bioorg Med Chem Lett, 2011).

Tests used:
[1] = system: Plasmodium falciparum; assay: Antimalarial activity against Plasmodium falciparum 3D7 infected in RBC assessed as parasite-specific lactate dehydrogenase release; type: functional, organism-based
[2] = molecular target: Plasmepsin II (Plasmodium falciparum, UniProt P46925); assay: Inhibition of Plasmodium falciparum plasmepsin 2 using DABCYL-Glu-Arg-Nle-Phe-Leu- Ser-Phe-Pro-EDANS fluorogenic substrate by fluorogenic assay
[3] = Inhibition of Plasmodium falciparum plasmepsin 4 using DABCYL-Glu-Arg-Nle-Phe-Leu- Ser-Phe-Pro-EDANS fluorogenic substrate by fluorogenic assay
[4] = molecular target: Cathepsin D (Homo sapiens) (UniProt P07339); assay: Inhibition of human liver Cathepsin D using KPIEF(nF)RL chromogenic substrate at 5 uM by absorbance assay
[5] = molecular target: Plasmepsin II (Plasmodium falciparum) (UniProt P46925); assay: Inhibition of Plasmodium falciparum plasmepsin 2 using DABCYL-Glu-Arg-Nle-Phe-Leu- Ser-Phe-Pro-EDANS fluorogenic substrate at 5 uM by fluorogenic assay
[6] = system: Plasmodium falciparum; assay: Inhibition of Plasmodium falciparum plasmepsin 4 using DABCYL-Glu-Arg-Nle-Phe-Leu- Ser-Phe-Pro-EDANS fluorogenic substrate at 5 uM by fluorogenic assay
[7] = system: Plasmodium falciparum; assay: Antimalarial activity against Plasmodium falciparum 3D7 infected in RBC assessed as parasite-specific lactate dehydrogenase release at 16 uM; type: functional

Cathepsin D (Homo sapiens), sequence (P07339 65-162 limits assumed): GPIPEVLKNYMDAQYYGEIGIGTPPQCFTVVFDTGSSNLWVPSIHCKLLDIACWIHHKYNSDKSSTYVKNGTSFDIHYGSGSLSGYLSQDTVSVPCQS
Cathepsin D (Homo sapiens), sequence (P07339 169-412 limits assumed): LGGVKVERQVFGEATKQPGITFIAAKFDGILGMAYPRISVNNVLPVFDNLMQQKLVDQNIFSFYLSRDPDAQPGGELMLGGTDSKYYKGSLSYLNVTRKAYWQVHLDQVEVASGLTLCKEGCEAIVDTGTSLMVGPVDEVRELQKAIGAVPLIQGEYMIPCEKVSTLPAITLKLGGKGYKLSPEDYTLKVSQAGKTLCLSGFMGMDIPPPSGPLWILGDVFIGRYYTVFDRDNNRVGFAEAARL
Plasmepsin II, sequence (P46925 whole entry): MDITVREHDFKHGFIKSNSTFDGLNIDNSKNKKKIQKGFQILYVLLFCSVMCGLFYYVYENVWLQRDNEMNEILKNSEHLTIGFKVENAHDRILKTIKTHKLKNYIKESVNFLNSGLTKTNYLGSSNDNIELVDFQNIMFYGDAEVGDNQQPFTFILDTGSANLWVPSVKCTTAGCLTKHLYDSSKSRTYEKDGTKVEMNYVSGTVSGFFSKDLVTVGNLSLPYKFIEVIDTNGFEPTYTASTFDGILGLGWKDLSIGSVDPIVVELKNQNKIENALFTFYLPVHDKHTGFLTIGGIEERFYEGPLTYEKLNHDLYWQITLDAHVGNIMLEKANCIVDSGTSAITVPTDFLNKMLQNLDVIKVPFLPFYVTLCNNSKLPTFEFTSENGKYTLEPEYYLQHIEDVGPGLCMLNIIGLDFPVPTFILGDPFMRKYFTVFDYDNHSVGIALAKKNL
Plasmepsin II (Plasmodium falciparum), sequence (P46925 125-453 limits assumed): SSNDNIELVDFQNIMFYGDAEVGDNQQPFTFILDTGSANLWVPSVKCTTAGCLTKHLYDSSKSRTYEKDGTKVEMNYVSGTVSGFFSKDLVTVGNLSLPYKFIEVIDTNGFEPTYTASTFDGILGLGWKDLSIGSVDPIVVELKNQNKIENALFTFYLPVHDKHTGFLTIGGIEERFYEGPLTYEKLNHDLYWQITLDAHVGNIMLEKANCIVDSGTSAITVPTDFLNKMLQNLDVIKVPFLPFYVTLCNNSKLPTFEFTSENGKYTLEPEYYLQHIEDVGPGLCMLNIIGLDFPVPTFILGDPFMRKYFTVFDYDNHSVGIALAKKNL

Work on `CCOC(=O)c1ccc(/N=C2\S/C(=C\c3ccc(C(C)(C)C)cc3)C(=O)N2c2ccc(C(=O)OCC)cc2)cc1` yielded an IC50 [1] of 5 µM, an IC50 [2] of 6.1 µM and a Ki [2] of 4 µM. The IC50 [3] was 3.7 µM, the Ki [3] was 3.23 µM and the inhibition [4] was 15%.
Compound `O=C(NCCNC(=O)/C(=C\c1ccco1)NC(=O)c1ccccc1)/C(=C/c1ccco1)NC(=O)c1ccccc1` has an IC50 [1] of 12 µM.
For `Cc1ccc(NC(=S)N(Cc2ccc3c(c2)OCO3)Cc2cc3cccc(C)c3[nH]c2=O)cc1`, the IC50 [1] was 9.6 µM, the IC50 [2] was 7 µM and the Ki [2] was 4.6 µM. It also gave an IC50 [3] of 6.3 µM, a Ki [3] of 5.5 µM and an inhibition [4] of 35%.
In the case of `CCOc1ccc(N(C(=O)c2snc(C(=O)NC3CCCCC3)c2N)[C@H](C(=O)NCCc2ccccc2)c2ccc(OC)cc2)cc1`, the IC50 [1] is reported as 0.35 µM, the inhibition [4] is reported as 20% and the inhibition [5] is reported as 30%. For the same compound, the inhibition [6] was 20%.
With `CCCCOc1ccc(-c2cc(C(=O)N/N=C(\C=C\c3ccc4c(c3)OCO4)c3ccc(OC)cc3)c3ccccc3n2)cc1` the IC50 [1] was 24 µM.
For `COc1ccc([C@@H](C(=O)NC2CCCC2)N(C(=O)c2snc(C(N)=O)c2N)c2ccc(OC)cc2)cc1`, the IC50 [1] was 25 µM.
In the case of `COc1ccc(Cl)cc1NC(=O)c1sc2nc(-c3ccccc3)cc(-c3ccc(OCc4ccccc4)c(OC)c3)c2c1N`, the IC50 [1] is reported as 2.3 µM, the IC50 [2] is reported as 2.3 µM and the Ki [2] is reported as 1.6 µM. It also gave an IC50 [3] of 6.2 µM, a Ki [3] of 5.4 µM and an inhibition [4] of 12%.
Compound `CCN(CC)c1ccc(/C=N/NC(=O)CSc2nc3ccccc3n2Cc2ccc(Cl)cc2)cc1` has an IC50 [1] of 2.18 µM, an IC50 [2] of 2.4 µM and a Ki [2] of 1.2 µM. The IC50 [3] was 0.62 µM, the Ki [3] was 0.47 µM and the inhibition [4] was 10%.
Compound `CCOc1cccc(-c2cc(C(=O)N/N=C/c3ccc(OC)c(CN4CCSCC4)c3)c3ccccc3n2)c1` has an IC50 [1] of 40 µM.
`COC(=O)CCC(=O)N(CCN(Cc1ccccc1)C(=O)CCC(=O)OC)Cc1ccccc1` gave an IC50 [1] of 5.24 µM, an IC50 [2] of 10 µM and a Ki [2] of 7 µM. The IC50 [3] was 9 µM and the inhibition [4] was 35%.
For `COc1ccc(-c2cc(-c3ccc(Cl)cc3)c(C#N)c(S[C@H](C)C(=O)Nc3ccc(C(C)=O)cc3)n2)cc1`, the inhibition at 16 µM [7] was 32%.
In the case of `CC(C)CCNC(=O)[C@H](c1c[nH]c2ccccc12)N(C(=O)c1snc(C(N)=O)c1N)c1ccc2c(c1)OCO2`, the IC50 [1] is reported as 2.21 µM, the IC50 [2] is reported as 21.3 µM and the Ki [2] is reported as 10.6 µM. For the same compound, the IC50 [3] was 26 µM, the Ki [3] was 20 µM and the inhibition [4] was 12%.
With `CCN(CC)C(=O)c1sc(NC(=O)c2cc(-c3cccc(C)c3)nc3ccccc23)c(C(=O)OC)c1C` the IC50 [1] was 4.5 µM, the IC50 [2] was 2.5 µM and the Ki [2] was 2 µM. The IC50 [3] was 2.6 µM, the Ki [3] was 2.5 µM and the inhibition [4] was 20%.
In the case of `CCCCOc1cccc(-c2cc(C(=O)N/N=C(\C)c3cccc(NC(=O)C(C)(C)C)c3)c3ccccc3n2)c1`, the IC50 [1] is reported as 3.7 µM, the IC50 [2] is reported as 11.5 µM and the Ki [2] is reported as 8 µM. It also gave an IC50 [3] of 15 µM, a Ki [3] of 13 µM and an inhibition [4] of 12%.
With `CCCCc1ccc(-c2cc(C(=O)Nc3scc(-c4cccnc4)c3C(=O)OC)c3cc(Br)ccc3n2)cc1` the IC50 [1] was 1.24 µM.
